According to US20030125343A1, “Combinations of receptor tyrosine kinase inhibitor with an a1-acidic glycoprotein binding compound” (priority 1999, published 2003):

What was measured:
KU812 leukemic cells = assay: In vivo treatment of nude mice injected s.c. with KU812 leukemic cells; set-up: species or system CD1 nu/nu mice
Description: Seven to 9 week-old female CD1 nu/nu mice purchased at Charles River Breedin Laboratories (Calco, Italy) are kept under standard laboratory conditions according to the guidelines of the National Cancer Institutes, Milan, Italy. This study is approved by the institutional ethics committee for laboratory animals used in experimental research. KU812 bcr/abl positive cell line is injected (50×10^6 cells per animal) subcutaneously in the left flank of the animal. Oral treatment is administered through a syringe connected to a soft plastic tube introduced in esophagus (gavage). Tumor weight (TW) and total weight are monitored every 3-4 days. TW is calculated by the formula TW [mg]=(d^2×D), where d and D are the shortest and longest diameters of the tumor, respectively, measured in millimeters. Treatment is started 1-15 days after leukemic cell injection.
Nude mice are injected s.c. with 50 millions KU812 cells. Treatment is initiated after 1, 8 and 15 days respectively (groups I to III), in the presence of approximately, 50, 300 millions and 1 billion leukemic cells. […] To test this hypothesis mice in group II are treated for 11 or 18 days.
Mice are injected with KU812 cells and treatment is started 11 days later in the presence of an approximate tumor load of 400 mg.

bcr/abl = target: T1, bcr/abl (Homo sapiens, UniProt P00519); assay: In vitro bcr/abl autophosphorylation in KU812 cells (anti-phosphotyrosine western blot); format: cell-based; settings: erythromycin base 100 μM, STI571 3 μM, AGP 2 mg/ml, 1 hour
T1 construct: Endogenous bcr/abl and tyrosine-phosphorylated bcr/abl are detected with the corresponding mouse monoclonal antibody; BCR N-terminal portion (fusion partner, human BCR P11274); endogenous in cells; host or cells: KU812 (DSMZ ACC 378), in culture or as subcutaneous tumour in CD1 nu/nu mice; the other entry of the earlier key: BCR (P11274, Breakpoint cluster region protein)
T1 sequence (P00519 with tags, fused parts or gaps): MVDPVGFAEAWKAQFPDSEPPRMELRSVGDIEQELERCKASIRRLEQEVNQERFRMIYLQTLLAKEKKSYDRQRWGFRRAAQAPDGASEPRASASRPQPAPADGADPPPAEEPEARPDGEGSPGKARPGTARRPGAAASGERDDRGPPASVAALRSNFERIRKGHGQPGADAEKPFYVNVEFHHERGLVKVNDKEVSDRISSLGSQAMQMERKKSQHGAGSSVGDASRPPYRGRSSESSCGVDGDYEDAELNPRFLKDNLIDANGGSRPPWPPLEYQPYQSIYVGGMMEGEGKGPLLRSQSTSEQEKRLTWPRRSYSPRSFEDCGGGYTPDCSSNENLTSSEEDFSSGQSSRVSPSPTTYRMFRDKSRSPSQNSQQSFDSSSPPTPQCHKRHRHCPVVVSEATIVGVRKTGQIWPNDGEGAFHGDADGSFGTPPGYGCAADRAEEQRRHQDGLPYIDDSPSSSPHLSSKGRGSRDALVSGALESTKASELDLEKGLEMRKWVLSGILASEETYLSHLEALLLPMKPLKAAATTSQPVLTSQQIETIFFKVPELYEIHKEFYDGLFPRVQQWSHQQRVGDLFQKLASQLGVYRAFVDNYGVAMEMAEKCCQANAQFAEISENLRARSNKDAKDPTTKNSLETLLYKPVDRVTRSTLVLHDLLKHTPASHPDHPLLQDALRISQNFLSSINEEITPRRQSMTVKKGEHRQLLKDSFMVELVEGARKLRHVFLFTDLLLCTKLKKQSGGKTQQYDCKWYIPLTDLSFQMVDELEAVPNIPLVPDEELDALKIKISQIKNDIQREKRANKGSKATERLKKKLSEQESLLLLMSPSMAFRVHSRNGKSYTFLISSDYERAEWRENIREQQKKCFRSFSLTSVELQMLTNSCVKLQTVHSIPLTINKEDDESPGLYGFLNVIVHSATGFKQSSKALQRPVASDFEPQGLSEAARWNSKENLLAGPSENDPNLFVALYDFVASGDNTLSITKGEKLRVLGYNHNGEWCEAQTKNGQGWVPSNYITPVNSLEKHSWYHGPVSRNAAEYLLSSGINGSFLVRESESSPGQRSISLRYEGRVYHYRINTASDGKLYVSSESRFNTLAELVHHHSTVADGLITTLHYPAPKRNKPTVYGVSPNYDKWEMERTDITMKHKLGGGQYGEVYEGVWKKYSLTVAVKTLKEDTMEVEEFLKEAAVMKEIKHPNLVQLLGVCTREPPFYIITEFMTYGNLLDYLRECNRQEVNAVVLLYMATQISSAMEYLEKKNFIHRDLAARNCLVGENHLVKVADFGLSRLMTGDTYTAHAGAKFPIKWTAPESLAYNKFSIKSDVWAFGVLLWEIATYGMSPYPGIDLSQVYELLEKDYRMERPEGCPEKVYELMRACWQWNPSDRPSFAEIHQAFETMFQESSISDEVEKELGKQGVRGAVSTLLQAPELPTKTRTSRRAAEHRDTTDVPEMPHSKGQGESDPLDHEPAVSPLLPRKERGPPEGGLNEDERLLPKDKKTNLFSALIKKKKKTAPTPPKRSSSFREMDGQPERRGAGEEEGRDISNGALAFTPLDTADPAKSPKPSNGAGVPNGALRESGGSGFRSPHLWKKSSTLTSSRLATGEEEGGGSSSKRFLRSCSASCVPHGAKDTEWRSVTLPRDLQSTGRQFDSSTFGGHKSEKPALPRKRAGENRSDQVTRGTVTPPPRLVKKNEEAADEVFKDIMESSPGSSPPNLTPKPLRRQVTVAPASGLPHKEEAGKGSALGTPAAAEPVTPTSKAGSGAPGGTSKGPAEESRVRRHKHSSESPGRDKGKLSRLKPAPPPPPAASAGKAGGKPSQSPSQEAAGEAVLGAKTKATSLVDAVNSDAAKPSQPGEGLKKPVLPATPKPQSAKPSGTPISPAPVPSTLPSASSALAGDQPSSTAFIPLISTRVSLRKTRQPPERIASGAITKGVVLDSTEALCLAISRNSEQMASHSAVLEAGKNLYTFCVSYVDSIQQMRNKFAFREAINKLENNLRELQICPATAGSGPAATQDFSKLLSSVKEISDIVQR

KU812 cells = assay: Tritiated thymidine uptake in vitro proliferation assay; settings: erythromycin 5 to 30 μM, STI571 1 μM, AGP 1 mg/ml

Row | Effect of erythromycin on STI571 block of bcr/abl kinase activity in presence of AGP (bcr/abl) | Structure (SMILES) | Animals that developed tumor growth, non pretreated mice (KU812 leukemic cells; 160 mg/kg every 8 hours for 11 days starting 24 hours after cell injection) | Cure, group printed as 'group II' (KU812 leukemic cells; 160 mg/kg p.o. every 8 hours for 11 days, sentence follows the group II relapse rate) | Cured animals, controls not pretreated (KU812 leukemic cells; injected with KU812, treated with STI571 24 hours later) | Animals with tumor growth, pretreated mice (KU812 leukemic cells; pretreated with STI571, then 160 mg/kg every 8 hours for 11 days starting 24 hours after injection, p<0.05) | Cured animals, pretreated with STI571 (KU812 leukemic cells; pretreated, injected with KU812, treated 24 hours later, p<0.01 vs controls) | Response of relapsed tumors to re-treatment (KU812 leukemic cells; same 11 day regimen, started when tumors measurable again) | Cure, group I (KU812 leukemic cells; treatment started 1 day after cell injection, 160 mg/kg p.o. every 8 hours for 11 days) | Animals showing disappearance of the tumor / tumor free (KU812 leukemic cells; treatment started 11 days after injection, tumor load about 400 mg, every 8 hours for 18 days) | Number of animals that relapsed (KU812 leukemic cells; treatment started at day 11, 18 days of treatment, relapse between day 25 and 40) [animals] | Animals cured at last day of follow up (day 120) (KU812 leukemic cells; treatment started at day 11, tumor load about 400 mg, 18 days, p<0.01 between groups) | Cure of animals bearing large tumors (KU812 leukemic cells; tumors >400 mg at start of treatment) | Tumor regression, erythromycin alone (KU812 leukemic cells; control groups, erythromycin in methyl cellulose 5%, not shown) | Effect of erythromycin on AGP-mediated block of STI571 activity on KU812 proliferation (KU812 cells)
1 | – | Cc1ccc(NC(=O)c2ccc(CN3CCN(C)CC3)cc2)cc1Nc1nccc(-c2cccnc2)n1 [STI571] | 0/14 | no cure is ever observed | 16/16 | 7/14 | 8/16 | respond poorly to the new treatment | reproducibly cured | 5/15 | 4 | 1/13 | no animal was cured | – | –
2 | STI571 activity can be restored | CC[C@H]1OC(=O)[C@H](C)[C@@H](O[C@H]2C[C@@](C)(OC)[C@@H](O)[C@H](C)O2)[C@H](C)[C@@H](O[C@@H]2O[C@H](C)C[C@H](N(C)C)[C@H]2O)[C@](C)(O)C[C@@H](C)C(=O)[C@H](C)[C@@H](O)[C@]1(C)O [erythromycin, Erythromycin] | – | – | – | – | – | – | – | – | – | – | – | do not show any evidence of tumor regression | restores sensitivity to STI571 with a clear dose response relationship
